Measurements as given in patent US20250152751A1, “RED-SHIFTED FLUOROPHORES AND METHODS OF USING THE SAME” (GEORGIA STATE UNIVERSITY RESEARCH FOUNDATION, INC., priority 2022, published 2025).

Assays:
[1] = Optical properties of the fluorophores measured in ethanol, compared to ICG; format: physicochemical; conditions: for Φ^a (%): compared to ICG
Method in brief: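 Values cover absorption and emission maxima, Stokes shift, quantum yield and molar extinction coefficient. All were obtained for each fluorophore in ethanol, with a reference dye measured for comparison.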

[2] = Solvatochromism: absorption maximum in different solvents; format: physicochemical

| SMILES | Stokes Shift (nm) [1] [nm] | λabs (nm) [1] [nm] | λem (nm) [1] [nm] | ϵ (cm^−1 M^−1) [1] | Φ^a (%) [1] [%] | λabs (nm) Acetonitrile [2] [nm] | λabs (nm) DMSO [2] [nm] | λabs (nm) Ethanol [2] [nm] | λabs (nm) Methanol [2] [nm] |
| --- | --- | --- | --- | --- | --- | --- | --- | --- | --- |
| CCCCN1C(=CC=C2CCCC(C=C(C#N)C(=O)O)=C2Sc2ccncc2)C(C)(C)c2ccccc21 [Compound 78] | 15 | 800 | 815 | 166,300 cm^−1 M^−1 | 11.3 | 795 | 810 | 800 | 800 |
| CCN1C(=CC=C2CCCC(C=C(C#N)C(=O)O)=C2N2CCC(CO)CC2)C(C)(C)c2ccccc21 [Compound 80] | 101 | 685 | 786 | 78,200 cm^−1 M^−1 | 16.7 | 660 | 690 | 685 | 675 |
| CCN1C(=CC=C2CCCC(C=C(C#N)C(=O)O)=C2Sc2ccncc2)C(C)(C)c2ccccc21 [Compound 77] | 15 | 800 | 815 | 134,400 cm^−1 M^−1 | 11.5 | 790 | 810 | 800 | 795 |
| CCN1C(=CC=C2CCCC(C=C(C#N)C#N)=C2Cl)C(C)(C)c2cc(Br)ccc21 [Compound 74] | 19 | 790 | 809 | 152,300 cm^−1 M^−1 | 11.3 | 790 | 800 | 790 | 785 |
| CCN1C(=CC=C2CC(C(C)(C)C)CC(C=C(C#N)C(=O)O)=C2N2CCC(CO)CC2)C(C)(C)c2ccccc21 (stereo not shown) [Compound 84] | 124 | 660 | 784 | 75,100 cm^−1 M^−1 | 18.6 | 640 | 665 | 660 | 650 |
| CCN1C(=CC=C2CCCC(C=C(C#N)C(=O)O)=C2N2CCC(CO)CC2)C(C)(C)c2cc(Br)ccc21 [Compound 82] | 124 | 675 | 794 | 61,000 cm^−1 M^−1 | 17.3 | 640 | 670 | 675 | 665 |
| CCN1C(=CC=C2CCCC(C=C(C#N)C#N)=C2Cl)C(C)(C)c2cc(Cl)ccc21 [Compound 75] | 15 | 790 | 805 | 145,400 cm^−1 M^−1 | 11.5 |  |  |  |  |
| CCN1/C(=C/C=C2\CC(C(C)(C)C)CC(/C=C(\C#N)C(=O)O)=C2Sc2ccncc2)C(C)(C)c2cc(Cl)ccc21 (stereo not shown) [Compound 79] | 13 | 805 | 818 | 147,300 cm^−1 M^−1 | 11.3 | 800 | 815 | 805 | 800 |
| CCCCN1/C(=C/C=C2\CCCC(C=C(C#N)C#N)=C2Cl)C(C)(C)c2c1ccc1ccccc21 [Compound 76] | 6 | 820 | 826 | 146,400 cm^−1 M^−1 | 8.8 | 820 | 835 | 820 | 820 |
| CCN1C(=CC=C2CC(c3ccccc3)CC(C=C(C#N)C(=O)O)=C2Cl)C(C)(C)c2cc(F)ccc21 (stereo not shown) [Compound 67] | 16 | 780 | 796 | 124,700 cm^−1 M^−1 | 12.3 |  |  |  |  |
